What was measured:
G6 Pase mRNA = test: Semiquantitative RT-PCR, liver tissue: G6 Pase; format: in vivo, C57BL/6J mice; details: HFD-fed mice
Experimental: (§1) Experimental Animals: the experiments are conducted under the guidelines of the Institutional Animal Care and Use Committee of Central Taiwan University of Science and Technology. As previously described, four-week-old male C57BL/6J mice (n=63) is purchased from the National Laboratory Animal Breeding and Research Center, Ministry of Science and Technology. After 1-week of acclimatization, mice are designed to initiate the study, and the study lasts for 12 weeks. […] The CON group and high-fat control (HF) group are given with vehicle only. The low-fat diet consisted of fat 10%, whereas the high-fat diet (HFD) consisted of fat 45% (of total energy, % kcal). The compositions of the experimental diets are shown as described. At the end of the study, food is derived from the animals (from 10 p.m. to 10 a.m.). On the next day, the mice are sacrificed, and blood and tissue are collected for analysis. Livers, skeletal muscles, and white adipose tissues (WATs) (including epididymal, mesenteric and retroperitoneal WAT) are excised and weighed, and then immediately stored in a freezer at −80° C. Heparin (30 units/mL) (Sigma) is added to blood samples. Plasma samples are collected by centrifugation at 1600 g for 15 min at 4° C. within 30 min, and plasma is obtained for insulin and leptin level analysis.
(§2) The experiment is performed as in a previously described protocol. Total RNA from the liver tissue is isolated with a Trizol reagent (Molecular Research Center, Inc., Cincinnati, Ohio, USA) according to the manufacturer's directions. Total RNA (1 μg) is reverse transcribed to cDNA with 5 μL of Moloney murine leukemia virus reverse transcriptase (Epicenter, Madison, Wis., USA) as a previously described protocol. […] The relative density of the band is evaluated using AlphaDigiDoc 1201 software (Alpha Innotech Co., San Leandro, Calif., USA). All of the measured PCR products are normalized to the amount of cDNA of GAPDH in each sample.

SREBP1c mRNA = test: Semiquantitative RT-PCR, liver tissue: SREBP1c; format: in vivo, C57BL/6J mice; details: HFD-fed mice
Experimental: as §1, §2

PEPCK mRNA = test: Semiquantitative RT-PCR, liver tissue: PEPCK; format: in vivo, C57BL/6J mice; details: HFD-fed mice
Experimental: as §1, §2

adiponectin mRNA = test: Semiquantitative RT-PCR, liver tissue: adiponectin; format: in vivo, C57BL/6J mice; details: HFD-fed mice, 40 mg/kg/day
Experimental: as §1, with “Heparin (30 units/mL) (Sigma) is added to blood samples. Plasma samples are collected by centrifugation at 1600 g for 15 min at 4° C. within 30 min, and plasma is obtained for insulin and leptin level analysis.” left out
The experiment is performed as in a previously described protocol. […] The relative density of the band is evaluated using AlphaDigiDoc 1201 software (Alpha Innotech Co., San Leandro, Calif., USA). All of the measured PCR products are normalized to the amount of cDNA of GAPDH in each sample.

PPARα mRNA = test: Semiquantitative RT-PCR, liver tissue: PPARα; format: in vivo, C57BL/6J mice; details: HFD-fed mice
Experimental: as §1, §2

DGAT2 mRNA = test: Semiquantitative RT-PCR, liver tissue: DGAT2; format: in vivo, C57BL/6J mice; details: HFD-fed mice
Experimental: as §1, §2

[1] = system: phospho-Akt (Ser 473)/total Akt; test: Western blotting of phospho-Akt (Ser 473)/total Akt; format: in vivo, C57BL/6J mice; details: HFD-fed mice, vs HF mice
Experimental: as §1
Protein extractions and immunoblots for the determination of membrane GLUT4, phospho-AMPK (Thr172), and phospho-Akt (Ser 473) proteins are carried out on frozen skeletal muscle and liver tissue from mice, which follows a previous paper. […] The protein contents of membrane GLUT4, phospho-AMPK, phospho-Akt, total AMPK, and total Akt are detected by western blotting. Western blotting has been determined as described elsewhere. Subsequently, antibodies are detected using horseradish peroxidase linked to a goat anti-IgG rabbit secondary antibody and visualized using an ECL system. […] The density blotting is analyzed using Alpha Easy FC software (Alpha Innotech Corp., Randburg, South Africa). […]

HFD-fed C57BL/6J mice = test: Hepatic lipid in HFD-fed mice; format: in vivo; details: oral gavage daily for 4 weeks
Experimental: as §1
Blood Lipid and Hepatic Lipid. Hepatic lipids are extracted as previously described. Liver sample (0.375 g) is homogenized with 1 mL of distilled water for 5 min for the hepatic lipid extraction and analyzed using a triglycerides kit as used for serum lipids.

CC(C)[C@@H](C)C=C[C@@H](C)[C@H]1CC[C@H]2C3=CCC4C[C@@H](O)CC[C@]4(C)C3=CC[C@]12C (stereo partly drawn) [ergostatrien-3β-ol, ergosta-7,9(11),22-trien-3β-ol]
mRNA level of G6 Pase (G6 Pase mRNA; 10 mg/kg/day): decreased
mRNA level of G6 Pase (G6 Pase mRNA; 20 mg/kg/day): decreased
mRNA level of G6 Pase (G6 Pase mRNA; 40 mg/kg/day): decreased
mRNA level of SREBP1c (SREBP1c mRNA; 10 mg/kg/day): decreased
mRNA level of SREBP1c (SREBP1c mRNA; 20 mg/kg/day): decreased
mRNA level of SREBP1c (SREBP1c mRNA; 40 mg/kg/day): decreased
mRNA level of PEPCK (PEPCK mRNA; 10 mg/kg/day): decreased
mRNA level of PEPCK (PEPCK mRNA; 20 mg/kg/day): decreased
mRNA level of PEPCK (PEPCK mRNA; 40 mg/kg/day): decreased
mRNA level of adiponectin (adiponectin mRNA): increase
mRNA level of PPARα (PPARα mRNA; 10 mg/kg/day): increase
mRNA level of PPARα (PPARα mRNA; 20 mg/kg/day): increase
mRNA level of PPARα (PPARα mRNA; 40 mg/kg/day): increase
mRNA level of DGAT2 (DGAT2 mRNA; 10 mg/kg/day): decreased
mRNA level of DGAT2 (DGAT2 mRNA; 20 mg/kg/day): decreased
mRNA level of DGAT2 (DGAT2 mRNA; 40 mg/kg/day): decreased
levels of phospho-Akt/total Akt ([1]; 10 mg/kg/day): higher
levels of phospho-Akt/total Akt ([1]; 20 mg/kg/day): higher
levels of phospho-Akt/total Akt ([1]; 40 mg/kg/day): higher
Liver Lipids total lipid (HFD-fed C57BL/6J mice; 10 mg/kg/day): 72.4 ± 3.7 mg/g
Liver Lipids triacylglycerol (HFD-fed C57BL/6J mice; 10 mg/kg/day): 57.3 ± 5.5 µmol/g
Liver Lipids total lipid (HFD-fed C57BL/6J mice; 20 mg/kg/day): 68.0 ± 4.5 mg/g
Liver Lipids triacylglycerol (HFD-fed C57BL/6J mice; 20 mg/kg/day): 44.5 ± 4.7 µmol/g
Liver Lipids total lipid (HFD-fed C57BL/6J mice; 40 mg/kg/day): 65.4 ± 4.2 mg/g
Liver Lipids triacylglycerol (HFD-fed C57BL/6J mice; 40 mg/kg/day): 43.7 ± 6.6 µmol/g
